Usually IC50 stands for the concentration at which inhibition is half-maximal.

The target in the experiment is T1, human ACC2 (Homo sapiens, UniProt O00763).
T1 construct: made in house; host or cells: insect cells (baculoviral expression system)
As to the kind of experiment: ACC2 assay, spectrophotometric 384 well assay (NADH-linked, coupled lactate dehydrogenase/pyruvate kinase). The format is biochemical. The note with it: ACC2 assay, hACC2 construct lacking 128 N-terminal amino acids, 25° C., 340 nm; read-out: IC50. A digest of the protocol: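 Human ACC2 lacking N-terminal 128 aa, baculovirus/insect-cell expressed, anion-exchange purified; 100 mM Tris pH 7.5, 10 mM citrate, 25 mM KHCO3, 1% DMSO. Started with 200 μM NADH and acetyl-CoA plus 500 μM ATP; PK/LDH-coupled A340 decrease read 15 min at 25° C. IC50 by nonlinear fit of low-control-subtracted slopes.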

SMILES strings stand for the structures.

T1 sequence (O00763 129-2458 limits assumed): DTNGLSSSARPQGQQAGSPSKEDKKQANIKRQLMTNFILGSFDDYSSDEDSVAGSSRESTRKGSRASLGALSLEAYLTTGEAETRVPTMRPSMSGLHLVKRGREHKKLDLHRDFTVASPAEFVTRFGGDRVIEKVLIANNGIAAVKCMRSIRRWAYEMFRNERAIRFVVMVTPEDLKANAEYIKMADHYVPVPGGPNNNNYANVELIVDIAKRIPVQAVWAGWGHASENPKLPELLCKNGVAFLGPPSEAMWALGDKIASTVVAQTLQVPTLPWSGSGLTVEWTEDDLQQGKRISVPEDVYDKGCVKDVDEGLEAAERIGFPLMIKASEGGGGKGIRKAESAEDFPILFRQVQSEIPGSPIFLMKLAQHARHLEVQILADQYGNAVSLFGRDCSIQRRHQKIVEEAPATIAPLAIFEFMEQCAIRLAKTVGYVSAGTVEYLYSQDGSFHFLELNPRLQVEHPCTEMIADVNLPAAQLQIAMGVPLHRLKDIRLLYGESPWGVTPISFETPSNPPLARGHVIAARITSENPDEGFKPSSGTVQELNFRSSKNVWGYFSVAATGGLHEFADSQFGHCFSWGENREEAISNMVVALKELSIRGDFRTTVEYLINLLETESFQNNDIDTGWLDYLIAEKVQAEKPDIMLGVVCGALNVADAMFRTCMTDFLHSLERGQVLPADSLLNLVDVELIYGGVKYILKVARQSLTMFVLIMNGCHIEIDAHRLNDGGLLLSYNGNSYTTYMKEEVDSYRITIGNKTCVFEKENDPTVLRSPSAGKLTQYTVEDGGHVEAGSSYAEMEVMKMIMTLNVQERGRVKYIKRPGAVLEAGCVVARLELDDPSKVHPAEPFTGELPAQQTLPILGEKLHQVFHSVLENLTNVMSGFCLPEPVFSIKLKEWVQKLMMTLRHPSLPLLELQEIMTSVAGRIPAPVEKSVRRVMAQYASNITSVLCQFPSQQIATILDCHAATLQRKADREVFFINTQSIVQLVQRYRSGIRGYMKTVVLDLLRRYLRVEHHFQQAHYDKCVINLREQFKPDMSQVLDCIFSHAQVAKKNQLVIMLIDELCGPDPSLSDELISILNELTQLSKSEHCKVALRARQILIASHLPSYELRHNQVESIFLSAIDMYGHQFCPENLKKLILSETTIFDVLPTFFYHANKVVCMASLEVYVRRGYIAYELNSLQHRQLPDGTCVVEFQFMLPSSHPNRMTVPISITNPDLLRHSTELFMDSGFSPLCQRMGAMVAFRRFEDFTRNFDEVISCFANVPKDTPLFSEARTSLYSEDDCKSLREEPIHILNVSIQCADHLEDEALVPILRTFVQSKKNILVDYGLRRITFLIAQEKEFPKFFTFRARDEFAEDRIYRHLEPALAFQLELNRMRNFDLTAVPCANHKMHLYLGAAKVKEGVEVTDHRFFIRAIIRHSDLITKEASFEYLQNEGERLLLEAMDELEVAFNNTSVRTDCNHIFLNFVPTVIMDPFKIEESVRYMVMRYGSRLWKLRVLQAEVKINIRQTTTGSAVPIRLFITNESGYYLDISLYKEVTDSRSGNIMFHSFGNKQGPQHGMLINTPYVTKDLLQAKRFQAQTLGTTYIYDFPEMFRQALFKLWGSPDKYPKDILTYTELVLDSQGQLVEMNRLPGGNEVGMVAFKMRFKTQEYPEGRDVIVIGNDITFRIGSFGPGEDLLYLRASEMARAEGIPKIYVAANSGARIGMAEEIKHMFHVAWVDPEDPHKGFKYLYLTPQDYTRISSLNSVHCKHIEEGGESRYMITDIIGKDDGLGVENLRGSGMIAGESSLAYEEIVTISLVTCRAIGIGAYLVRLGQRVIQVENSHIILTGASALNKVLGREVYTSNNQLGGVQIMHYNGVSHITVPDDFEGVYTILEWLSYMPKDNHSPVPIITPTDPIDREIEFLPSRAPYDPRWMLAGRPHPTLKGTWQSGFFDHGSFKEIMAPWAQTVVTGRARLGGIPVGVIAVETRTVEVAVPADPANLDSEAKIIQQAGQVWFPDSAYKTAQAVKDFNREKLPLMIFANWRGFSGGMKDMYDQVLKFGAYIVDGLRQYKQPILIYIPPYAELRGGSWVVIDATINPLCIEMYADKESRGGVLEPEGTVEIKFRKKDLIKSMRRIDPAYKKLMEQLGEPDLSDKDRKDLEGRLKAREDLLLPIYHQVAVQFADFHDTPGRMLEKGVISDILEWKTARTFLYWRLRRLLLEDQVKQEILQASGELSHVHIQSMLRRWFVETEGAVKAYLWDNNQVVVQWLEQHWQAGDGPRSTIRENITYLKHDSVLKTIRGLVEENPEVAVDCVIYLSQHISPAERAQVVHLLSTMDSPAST

For `CC(=O)N[C@@H](C)c1ccc(C2CCN(c3ccnc(OCC4CC4)n3)CC2)cc1` [Example 11.131], the IC50 was determined as 1100 nM.
